# Results: patent publication US9636329B2, “Methods of treating cancer with glut inhibitors and oxidative phosphorylation inhibitors” (Northwestern University, priority 2012, dated 2017)
# Columns and labels:
# GLUT1 = biological target: T1, GLUT1 (Homo sapiens, UniProt P11166); conditions: cited from earlier work
# T1 sequence (P11166 1-492): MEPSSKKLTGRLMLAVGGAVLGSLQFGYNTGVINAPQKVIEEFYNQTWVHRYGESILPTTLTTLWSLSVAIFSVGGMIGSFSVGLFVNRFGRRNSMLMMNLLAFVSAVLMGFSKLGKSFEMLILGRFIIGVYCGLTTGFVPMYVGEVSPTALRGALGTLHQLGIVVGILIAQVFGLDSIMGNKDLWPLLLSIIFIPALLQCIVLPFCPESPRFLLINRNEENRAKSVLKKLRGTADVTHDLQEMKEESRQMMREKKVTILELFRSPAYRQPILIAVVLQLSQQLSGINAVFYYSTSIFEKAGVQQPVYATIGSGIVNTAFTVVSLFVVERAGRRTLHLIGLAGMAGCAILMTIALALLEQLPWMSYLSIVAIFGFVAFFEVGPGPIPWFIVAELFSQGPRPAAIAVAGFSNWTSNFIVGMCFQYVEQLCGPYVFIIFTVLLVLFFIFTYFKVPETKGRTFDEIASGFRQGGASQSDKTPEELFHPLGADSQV
# [1] = achieved in humans; read-out: Cmax plasma concentration; cited from earlier work
# NCI-60 cell lines = test: NCI-60 panel viability, 48 hr MTS assay (FIG. 5); format: cell-based; conditions: read-out: median reduction of viability
# Text: FIG. 5. […] 48 hr MTS assay, n=3+/−SEM, p<0.05
# GLUT4 activity may be prevalent across multiple cancers. To examine the dependency of other cancers on GLUT4 activity, we utilized the NCI-60 cancer cell line panel. […] The NCI-60 lines are representative of genetic heterogeneity within each cancer group. Therefore, it is possible that we may detect a role for GLUT4 in a subset of cancers within each group connected to a specific genotype.
# MM = test: Ritonavir anti-myeloma effects in myeloma cell lines and patient samples; format: cell-based
# JJN3 cells [2] = test: Oxygen consumption rate (OCR), SeaHorse XF24 bioanalyzer; format: cell-based; conditions: resistant JJN3 cells; ritonavir alone
# Procedure: (§1) FIG. 3. […] Cellular viability was assessed before OCR measurements and 400,000 viable cells were plated in 5 replicates. Result is representative of an n=3.
# L363 cells [3] = test: as above; format: cell-based; conditions: sensitive L363 cells; ritonavir 20 uM; 17 hrs
# Procedure: as §1
# GLUT4 = biological target: T2, GLUT4 (Homo sapiens, UniProt P14672); conditions: cited from earlier work
# T2 sequence (P14672 1-509): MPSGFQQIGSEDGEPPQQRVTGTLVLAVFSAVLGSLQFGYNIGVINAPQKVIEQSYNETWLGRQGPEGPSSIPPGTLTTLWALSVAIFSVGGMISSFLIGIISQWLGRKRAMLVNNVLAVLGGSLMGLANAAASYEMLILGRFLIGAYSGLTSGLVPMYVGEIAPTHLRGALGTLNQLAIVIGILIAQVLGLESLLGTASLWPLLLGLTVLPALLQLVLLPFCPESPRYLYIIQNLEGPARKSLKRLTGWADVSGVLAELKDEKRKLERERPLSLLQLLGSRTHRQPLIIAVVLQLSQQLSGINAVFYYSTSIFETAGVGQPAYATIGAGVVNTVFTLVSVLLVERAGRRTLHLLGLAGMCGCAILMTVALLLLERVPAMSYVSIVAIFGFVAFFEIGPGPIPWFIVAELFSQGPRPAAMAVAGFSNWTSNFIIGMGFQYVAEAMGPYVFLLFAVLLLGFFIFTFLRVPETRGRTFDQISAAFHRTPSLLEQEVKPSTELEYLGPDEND
# MM cells = test: Viability of MM cells, glucose deprivation / ritonavir / metformin; format: cell-based; conditions: absence of glucose; metformin 5 mM; 72 hrs
# Text: (§2) To investigate whether mitochondrial oxidative phosphorylation can render MM cells resistant to glucose-deprivation we treated cells with metformin. which is a known mitochondrial complex 1 inhibitor [25-27]).
# JJN3 cells [4] = conditions: JJN3 cultured in the absence of glucose; metformin 5 mM; 72 hrs
# Text: as §2
# L363 cells [5] = test: Viability of MM cell lines by Annexin/DAPI staining (FIG. 2); format: cell-based; conditions: glucose-deprived L363 cells + galactose 10 mM; metformin 5 mM; 72 hrs
# Text: as §2
# U266 cells = test: Cell death by DAPI staining with doxorubicin at 11 mM or 0.5 mM glucose (FIG. 1C); format: cell-based; conditions: resistant U266 cells; glucose-free culture (0.5 mM vs 11 mM glucose); 48 hours
# Procedure: (§3) FIG. 1. Glucose metabolism sustains myeloma cell proliferation, viability and promotes chemoresistance: (A) Primary myeloma cells, normal B lymphocytes (NBL) and four MM cell lines were cultured in medium containing 0 or 5 mM glucose for 48 (NBL, MM cell lines) or 72 (MM Patient) hours. Cell viability was determined by flow cytometric analysis of AnnexinV/DAPI staining and normalized to 5 mM samples. Data are means±SEM (n=2 for MM cell lines and NBL. n=1 for MM Patient sample). (B) MM cell lines were cultured in various glucose concentrations for 72 hours. Viable cell quantities were determined by MTS assay (represented by absorbance at 490 nm) and normalized to 5 mM samples. U266 cells (C) and normal PBMC (D) were cultured in 11 mM or 0.5 mM glucose-containing medium for 48 hours in the presence of the indicated concentrations of doxorubicin. Cell death was determined by OAPI staining. […] Glucose consumption rates and lactate production rates were determined and normalized to control shRNA-expressing cells. (G-I) Cells from part (E) were analyzed for viability and proliferation. (J) JJN3 cells transduced with control or GLUT1-targeted shRNA and analyzed for viability and proliferation. Viable cell densities are expressed as fold change relative to the day 0 reading of control shRNA-expressing cells. Cells from parts G-J were evaluated for viability via trypan blue exclusion. […]
# normal PBMC = test: Cell death by DAPI staining with doxorubicin at 11 mM or 0.5 mM glucose (FIG. 1D); format: cell-based; conditions: 48 hours
# Procedure: as §3
smiles,measurement,setting,value
CC(C)c1nc(CN(C)C(=O)N[C@H](C(=O)N[C@@H](Cc2ccccc2)C[C@H](O)[C@H](Cc2ccccc2)NC(=O)OCc2cncs2)C(C)C)cs1 [ritonavir],inhibition of cytoplasmic glucose binding site,GLUT1,competitively inhibit
same,Cmax,[1],16 µM
same,cytotoxicity at 20 µM,NCI-60 cell lines,≥ 50%
same,chemosensitization of resistant MM to doxorubicin,MM,chemosensitizing
same,glucose inhibitory and growth inhibitory effects in MM,MM; physiologically achievable doses of ritonavir,significant glucose inhibitory and growth inhibitory effects
same,oxygen consumption rate (OCR),JJN3 cells [2],increase in oxygen consumption rate
same,oxygen consumption rate (OCR),L363 cells [3],significant reduction in OCR
same,inhibition of cytoplasmic glucose binding site,GLUT4,competitively inhibit
CN(C)C(=N)N=C(N)N [metformin],sensitization of glucose deprived MM cells to metformin (viability),MM cells,sensitized to metformin
same,sensitization of glucose deprived cells to metformin (viability),JJN3 cells [4],sensitized to metformin
same,reversal of galactose rescue of viability,L363 cells [5],reverses the metabolic rescue provided by galactose
COc1cccc2c1C(=O)c1c(O)c3c(c(O)c1C2=O)C[C@@](O)(C(=O)CO)C[C@@H]3O[C@H]1C[C@H](N)[C@H](O)[C@H](C)O1 [doxorubicin],sensitivity to doxorubicin (cell death),U266 cells,sensitizes
same,impact of doxorubicin on normal PBMC (cell death),normal PBMC,not impacted
